Measurements: PubChem BioAssay AID248 (DTP/NCI, 2004)
Where “and” joins values, the source holds several entries; their conditions need not be identical. Identical values can stand only once. Inconclusive results and toxic doses are left out. Cut-off read from the data, not from the text of the source: active = T/C of 150% or more; inactive = T/C below 125%.

Tested on: L1210 leukemia ip in BDF1 mice, survival T/C
Experiment: NCI In Vivo Anticancer Drug Screen. Data for tumor model L1210 Leukemia (intraperitoneal) in B6D2F1 (BDF1) mice
Conditions: endpoint: mean survival time, higher = longer survival
Experimental: The antitumor activity of compounds was measured in mice bearing transplantable tumors. Survival or tumor size were measured and the results are expressed as the measurement made in the treated group (T) divided by the measurement made in the vehicle treated control group (C). The tumor model used in this assay is L1210 Leukemia (intraperitoneal) in B6D2F1 (BDF1) mice

[1] = dose: 100.0 mg/kg/injection, schedule: Q01DX001 (ip), vehicle: carboxymethylcellulose (CMC)
[2] = dose: 200.0 mg/kg/injection, schedule: Q01DX001 (ip), vehicle: carboxymethylcellulose (CMC)

Measured: T/C

CCc1ccccc1NC(=O)N1CCN(C)CC1
inactive: dose: 100.0 mg/kg/injection, schedule: Q01DX009 (ip), vehicle: saline 104 % of control | dose: 200.0 mg/kg/injection, schedule: Q01DX009 (ip), vehicle: saline 92 % of control

CC1CN=C(c2ccc(NC(=O)Nc3ccc(C4=NCCN4)cc3)cc2)N1 (centres undefined)
inactive: dose: 1.88 mg/kg/injection, schedule: Q01DX Z (ip), vehicle: saline 112 % of control | dose: 3.75 mg/kg/injection, schedule: Q01DX Z (ip), vehicle: saline 113 % of control

CCCCCCCCCCCCCCCCCCCC
inactive: dose: 25.0 mg/kg/injection, schedule: Q01DX009 (ip), vehicle: other 109 % of control | dose: 50.0 mg/kg/injection, schedule: Q01DX009 (ip), vehicle: other 101 % of control | dose: 100.0 mg/kg/injection, schedule: Q01DX009 (ip), vehicle: other 93 % of control

C1CCN(CN2CCCC2)C1
inactive: dose: 25.0 mg/kg/injection, schedule: Q01DX001 (ip), vehicle: saline 96 % of control | dose: 25.0 mg/kg/injection, schedule: Q01DX009 (ip), vehicle: saline 92 % of control | dose: 25.0 mg/kg/injection, schedule: Q04DX003 (ip), vehicle: saline 98 % of control | dose: 50.0 mg/kg/injection, schedule: Q01DX001 (ip), vehicle: saline 94 % of control | dose: 50.0 mg/kg/injection, schedule: Q01DX009 (ip), vehicle: saline 92 % of control | dose: 50.0 mg/kg/injection, schedule: Q04DX003 (ip), vehicle: saline 105 % of control | dose: 100.0 mg/kg/injection, schedule: Q01DX001 (ip), vehicle: saline 97 % of control and 88 % of control | dose: 100.0 mg/kg/injection, schedule: Q04DX003 (ip), vehicle: saline 88 % of control

Cc1ccc(B(O)O)cc1
inactive: dose: 50.0 mg/kg/injection, schedule: Q04DX002 (ip), vehicle: alcohol 107 % of control | dose: 100.0 mg/kg/injection, schedule: Q04DX002 (ip), vehicle: alcohol 101 % of control | dose: 200.0 mg/kg/injection, schedule: Q04DX002 (ip), vehicle: alcohol 101 % of control

c1ccc2c(c1)cc1ccc3cc4ccccc4c4ccc2c1c34
inactive: dose: 50.0 mg/kg/injection, schedule: Q01DX009 (ip), vehicle: acetone 110 % of control | [1] 100 % of control | dose: 100.0 mg/kg/injection, schedule: Q01DX009 (ip), vehicle: acetone 105 % of control | [2] 100 % of control | dose: 200.0 mg/kg/injection, schedule: Q01DX009 (ip), vehicle: acetone 107 % of control | dose: 400.0 mg/kg/injection, schedule: Q01DX001 (ip), vehicle: carboxymethylcellulose (CMC) 100 % of control

COC1OC2COc3ccccc3OC2C(N)C1N(C)c1ccccc1 (centres undefined)
inactive: dose: 18.75 mg/kg/injection, schedule: Q01DX001 (ip), vehicle: saline with Tween-80 98 % of control | dose: 37.5 mg/kg/injection, schedule: Q01DX001 (ip), vehicle: saline with Tween-80 96 % of control | dose: 75.0 mg/kg/injection, schedule: Q01DX001 (ip), vehicle: saline with Tween-80 93 % of control

Cc1ccc(CNC(=S)Nc2ccccc2)c(C)c1
inactive: dose: 100.0 mg/kg/injection, schedule: Q04DX002 (ip), vehicle: Klucel (hydroxypropylcellulose) (HPC) 96 % of control | dose: 200.0 mg/kg/injection, schedule: Q04DX002 (ip), vehicle: Klucel (hydroxypropylcellulose) (HPC) 103 % of control | dose: 400.0 mg/kg/injection, schedule: Q04DX002 (ip), vehicle: Klucel (hydroxypropylcellulose) (HPC) 103 % of control

CCOC(=O)C(C(=O)OCC)C1c2ccccc2-c2ccccc21
inactive: dose: 100.0 mg/kg/injection, schedule: Q04DX003 (ip), vehicle: Klucel (hydroxypropylcellulose) (HPC) 102 % of control | dose: 200.0 mg/kg/injection, schedule: Q04DX003 (ip), vehicle: Klucel (hydroxypropylcellulose) (HPC) 96 % of control | dose: 400.0 mg/kg/injection, schedule: Q04DX003 (ip), vehicle: Klucel (hydroxypropylcellulose) (HPC) 100 % of control

Nc1csnn1
inactive: dose: 50.0 mg/kg/injection, schedule: Q01DX001 (ip), vehicle: carboxymethylcellulose (CMC) 98 % of control | [1] 96 % of control | [2] 98 % of control

Cc1cn2ccccc2c[n+]1=O
inactive: dose: 5.0 mg/kg/injection, schedule: Q01DX009 (ip), vehicle: saline sonified 98 % of control | dose: 10.0 mg/kg/injection, schedule: Q01DX009 (ip), vehicle: saline sonified 98 % of control | dose: 20.0 mg/kg/injection, schedule: Q01DX009 (ip), vehicle: saline sonified 87 % of control
